Experimental data reported in patent US4479962A, “Indazoloxypropanolamine derivatives and use in combating, and for the prophylaxis of, cardiac and circulatory diseases” (Boehringer Mannheim GmbH, priority 1981, dated 1984).

System: left ventricle
Assay: Cardiotonic effect in wake dogs, left ventricular dp/dt, in relation to isoprenalin
Format: in vivo
Conditions: intravenous, wake mongrel dogs, average of two to four individual tests; for ED50: Canis lupus familiaris, increasing dosage in intervals of ten minutes, read-out: ED50 (dosage which achieves one-half of the maximum effect), dp/dt; for dp/dt (%) of 0.3/μg/kg Isoprenalin i.v. (maximum achievable effect in comparison to isoprenalin): relative to 0.3 μg/kg isoprenalin i.v.
Procedure: For the tests, mongrel dogs of both sexes were used. In a preparatory operation, catheters had been inserted under aseptic conditions into the Arteria and Vena femoralis and, through the myocardium, into the left ventricle. The tests were begun not less than ten days after this operation, when the animals were again in a clinically healthy state. Throughout the test, during which the animals were wake, the arterial blood pressure was determined by means of a catheter and an electromechanical transducer. In addition, the pressure in the left ventricle was continuously measured by means of a tip manometer which had been introduced into the ventrical catheter and advanced as far as the heart, and from that pressure the differentiation based on the time dp/dt max was determined. The heart rate (f cor) was computed by counting the heart beats at a fast chart speed at given times of measurement. At the beginning of the experiments the animals were injected intravenously with 0.3 μg/kg of isoprenalin and the effect on the rapidity of the pressure increase recorded. After dissipation of this injection the test compounds were injected intravenously in increasing dosage rates in intervals of ten minutes and again the effect of each dosage level determined. For the characterization of the effectiveness of the test compounds two criteria were calculated: 1. The termination of the achievable maximum effect in comparison to isoprenalin. The maximum achievable effect of the test compound was compared to that of isoprenalin. (The higher the value, the stronger the effect.) 2. From the logarithm of the injected dosages and the effect after injection, the dosage was determined which achieves one-half of the maximum effect (ED 50). […]

SMILES	ED50	dp/dt (%) of 0.3/μg/kg Isoprenalin i.v. (maximum achievable effect in comparison to isoprenalin)
Cc1cccc(C)c1NCCNCC(O)COc1cccc2[nH]ccc12.O=C(O)O (centres unmarked) [1-(Indol-4-yloxy)-3-[2-(2,6-dimethylphenylamino)-ethylamino]-propan-2-ol dihydrogen carbonate]	3.2 µg/kg	85%
Cc1cccc(C)c1NCCNCC(O)COc1cccc2[nH]ncc12 (centres unmarked) [1-(Indazol-4-yloxy)-3-[2-(2,6-dimethylphenylamino)ethylamino]-propan-2-ol]	2.2 µg/kg	87%
Cc1cccc(C)c1NCCNCC(O)COc1cccc2c1CCN2C=O (centres unmarked) [1-(1-formylindolin-4-yloxy)-3-[2-(2,6-dimethylphenylamino)-ethylamino]-propan-2-ol]	4.2 µg/kg	87%
Cc1cccc(C)c1NCCCNCC(O)COc1cccc2[nH]ncc12 (centres unmarked) [1-(indazol-4-yloxy)-3-[3-2,6-dimethylphenylamino)-propylamino]-propan-2-ol]	4.2 µg/kg	110%
Cc1cccc(C)c1NCCNCC(O)COc1cccc2[nH]nnc12.Cl.Cl (centres unmarked) [1-(Benztriazol-4-yloxy)-3-[2-(2,6-dimethylphenylamino)-ethylamino]-propan-2-ol dihydrochloride]	3.5 µg/kg	100%
O=[N+]([O-])c1cccc(NCCNCC(O)COc2cccc3[nH]ncc23)c1 (centres unmarked) [1-(indazol-4-yloxy)-3-[2-(3-nitrophenylamino)-ethylamino]-propan-2-ol]	2 µg/kg	66%
OC(CNCCNc1cccc2c1CCC2)COc1cccc2[nH]ncc12 (centres unmarked) [1-(indazol-4-yloxy)-3-[2-(indanyl-4-amino)-ethylamino]-propan-2-ol]	4.9 µg/kg	83%
